The values below are quoted from earlier work in publication PMC7827648 (Molecules, 2021).

Holding throughout (design): method as in doi:10.1055/s-0036-1588486
In data set [1] the test system is HeLa (adenocarcinoma of the cervix uterus) cells. To be noted: read-out: IC50, 50% inhibition of the cell population growth, HeLa, data taken from ref [3]; cited from earlier work.
For data set [2], the system named is RD (rhabdomyosarcoma) cells. Conditions: read-out: IC50, 50% inhibition of the cell population growth, RD, data taken from ref [3]; cited from earlier work.
In data set [3] the test system is A549 (lung adenocarcinoma) cells. To be noted: read-out: IC50, 50% inhibition of the cell population growth, A549, data taken from ref [3]; cited from earlier work.
The subject of data set [4] is HCT116 (intestinal carcinoma) cells. Conditions: read-out: IC50, 50% inhibition of the cell population growth, HCT116, data taken from ref [3]; cited from earlier work.

As usually defined, the IC50 is the midpoint of a concentration-inhibition curve. As to `CCOc1ccc(-c2c(C=O)cn3c2-c2cc(OCC)c(OCC)cc2CC3)cc1OCC` [Compound 1], the IC50 was 44.5 ± 2 µM in data set [1], 21.3 ± 1.2 µM in data set [2], 19.7 ± 0.3 µM in data set [3] and 11.8 ± 0.1 µM in data set [4].
